≈ marks a conversion by molar mass, not a printed value. Calls of active or inactive are those of the source. No cut-off for these calls is given here.
Tests used:
Candida albicans [1] = assay: Fungistatic activity against Candida albicans SSK21 after 24 to 48 hrs by broth microdilution assay; format: functional
Candida albicans [2] = assay: Fungistatic activity against Candida albicans CHK21 after 24 to 48 hrs by broth microdilution assay; format: functional
Candida albicans [3] = assay: Fungicidal activity against wild type Candida albicans CAF2-1 assessed as reduction in cell viability at 4 times MIC of SSK21/CHK21 after 24 hrs; format: functional, organism-based
Candida albicans [4] = assay: Fungistatic activity against wild type Candida albicans CAF2-1 after 24 to 48 hrs by broth microdilution assay; format: functional
Candida albicans [5] = assay: Fungistatic activity against Candida albicans SSK23 after 24 to 48 hrs by broth microdilution assay; format: functional
Candida albicans [6] = assay: Fungistatic activity against Candida albicans CHK23 after 24 to 48 hrs by broth microdilution assay; format: functional
Candida albicans [7] = assay: Fungicidal activity against Candida albicans SSK21 assessed as reduction in cell viability at 4 times MIC after 24 hrs; format: functional, organism-based
Candida albicans [8] = assay: Fungicidal activity against Candida albicans SSK23 assessed as reduction in cell viability at 4 times MIC of SSK21/CHK21 after 24 hrs; format: functional, organism-based
Candida albicans [9] = assay: Fungicidal activity against Candida albicans CHK21 assessed as reduction in cell viability at 4 times MIC after 24 hrs; format: functional, organism-based
Candida albicans [10] = assay: Fungicidal activity against Candida albicans CHK23 assessed as reduction in cell viability at 4 times MIC of SSK21/CHK21 after 24 hrs; format: functional, organism-based
Candida albicans [11] = assay: Fungicidal activity against wild type Candida albicans CAF2-1 assessed as reduction in cell viability at MIC of SSK21/CHK21 after 24 hrs; format: functional, organism-based
Candida albicans [12] = assay: Fungicidal activity against Candida albicans SSK21 assessed as reduction in cell viability at MIC after 24 hrs; format: functional, organism-based
Candida albicans [13] = assay: Fungicidal activity against Candida albicans SSK23 assessed as reduction in cell viability at MIC of SSK21/CHK21 after 24 hrs; format: functional, organism-based
Candida albicans [14] = assay: Fungicidal activity against Candida albicans CHK21 assessed as reduction in cell viability at MIC after 24 hrs; format: functional, organism-based
Candida albicans [15] = assay: Fungicidal activity against Candida albicans CHK23 assessed as reduction in cell viability at MIC of SSK21/CHK21 after 24 hrs; format: functional, organism-based
Candida albicans [16] = assay: Ratio of MIC for Candida albicans CHK21 to MIC for Candida albicans SSK21; format: functional
Candida albicans [17] = assay: Fungistatic activity against Candida albicans SKN7 mutant after 24 to 48 hrs by broth microdilution assay; format: functional, organism-based
Candida albicans [18] = assay: Fungistatic activity against Candida albicans SLN1 HK mutant after 24 to 48 hrs by broth microdilution assay; format: functional, organism-based
Candida albicans [19] = assay: Drug uptake in Candida albicans SSK21 at 3.6 ng/ml after 1 hrs by liquid scintillation counting relative to wild type Candida albicans CAF2-1; format: ADME, organism-based

In the case of `CC(=O)N1CCN(c2ccc(OCC3COC(Cn4ccnc4)(c4ccc(Cl)cc4Cl)O3)cc2)CC1` (configuration not stated), the Activity (Candida albicans [1]) is reported as “Active” and the Activity (Candida albicans [2]) is reported as “Active”.
For `CC[C@H](C)C[C@H](C)CCCCCCCCC(=O)N[C@H]1C[C@@H](O)[C@@H](NCCN)NC(=O)[C@@H]2[C@@H](O)CCN2C(=O)[C@H]([C@H](O)CCN)NC(=O)[C@H]([C@H](O)[C@@H](O)c2ccc(O)cc2)NC(=O)[C@@H]2C[C@@H](O)CN2C(=O)[C@H]([C@@H](C)O)NC1=O`, the Activity (Candida albicans [1]) was “Active” and the Activity (Candida albicans [2]) was “Active”.
With `C[C@@H]1[C@H](O)[C@@H](C)/C=C/C=C/C=C/C=C/C=C/C=C/C=C/[C@H](O[C@@H]2O[C@H](C)[C@@H](O)[C@H](N)[C@@H]2O)C[C@@H]2O[C@](O)(C[C@@H](O)C[C@@H](O)[C@H](O)CC[C@@H](O)C[C@@H](O)CC(=O)O[C@H]1C)C[C@H](O)[C@H]2C(=O)O` the Activity (Candida albicans [1]) was “Active” and the Activity (Candida albicans [2]) was “Active”.
`Clc1ccc(COC(Cn2ccnc2)c2ccc(Cl)cc2Cl)c(Cl)c1` (configuration not stated) was tested, and the Activity (Candida albicans [1]) was “Active” and the Activity (Candida albicans [2]) was “Active”.
In the case of `OC(Cn1cncn1)(Cn1cncn1)c1ccc(F)cc1F` [FLUCONAZOLE], the Activity (Candida albicans [3]) is reported as “Active”, the MIC (Candida albicans [4]) is reported as 16 µg/mL (≈ 52.2 µM) and the MIC (Candida albicans [1]) is reported as 0.032 µg/mL (≈ 0.104 µM). It also gave an MIC (Candida albicans [5]) of 0.25 µg/mL (≈ 0.816 µM), an MIC (Candida albicans [2]) of 1 µg/mL (≈ 3.27 µM) and an MIC (Candida albicans [6]) of 16 µg/mL (≈ 52.2 µM). The Activity (Candida albicans [7]) was “Active”, the Activity (Candida albicans [8]) was “Active” and the Activity (Candida albicans [9]) was “Active”. For the same molecule, the Activity (Candida albicans [10]) was “Active”, the Activity (Candida albicans [11]) was “inactive” and the Activity (Candida albicans [12]) was “inactive”. For the same molecule, the Activity (Candida albicans [13]) was “inactive”, the Activity (Candida albicans [14]) was “inactive” and the Activity (Candida albicans [15]) was “inactive”. For the same molecule, the Ratio (Candida albicans [16]) was 30.
For `C[C@@H](c1ncncc1F)[C@](O)(Cn1cncn1)c1ccc(F)cc1F` [VORICONAZOLE], the Activity (Candida albicans [3]) was “Active”, the MIC (Candida albicans [4]) was 0.5 µg/mL (≈ 1.43 µM) and the MIC (Candida albicans [1]) was 0.008 µg/mL (≈ 0.0229 µM). The MIC (Candida albicans [5]) was 0.064 µg/mL (≈ 0.183 µM), the MIC (Candida albicans [2]) was 0.015 µg/mL (≈ 0.0429 µM) and the MIC (Candida albicans [6]) was 1 µg/mL (≈ 2.86 µM). The Activity (Candida albicans [17]) was “Active”, the Activity (Candida albicans [18]) was “Active” and the Activity (Candida albicans [7]) was “Active”. For the same molecule, the Activity (Candida albicans [8]) was “Active”, the Activity (Candida albicans [9]) was “Active” and the Activity (Candida albicans [10]) was “Active”. The Activity (Candida albicans [11]) was “inactive”, the Activity (Candida albicans [12]) was “inactive” and the Activity (Candida albicans [13]) was “inactive”. For the same molecule, the Activity (Candida albicans [14]) was “inactive” and the Activity (Candida albicans [15]) was “inactive”.
In the case of `[3H]OC(Cn1cncn1)(Cn1cncn1)c1ccc(F)cc1F` [[3H]FLUCONAZOLE], the “fold change (FC)” value (Candida albicans [19]) is reported as 2.

— ChEMBL document CHEMBL1137022, “The Ssk1p response regulator and Chk1p histidine kinase mutants of Candida albicans are hypersensitive to fluconazole and voriconazole” (Antimicrob Agents Chemother, 2007)
